These are literature values, as cited in article PMC10842190 (ACS sensors, 2023).

For series [1], the system named is damaged collagen triple helices.

Turning to `O=C(O)[C@@H]1C[C@H](F)CN1` [H-flp-OH, (2S,4S)-4-fluoroproline], in the series on human cells, the “Toxicity to human cells” value was “not toxic”.

Consider (Gly-Ser)2-Gly-(Hyp-flp-Gly)7, for which the “Annealing to damaged collagen triple helices” value in series [1] is “cannot anneal”.

Consider (Gly-Ser)2-Gly-(flp-Hyp-Gly)7, for which the “Annealing to damaged collagen triple helices” value in series [1] is reported as “can anneal”.
